Legend:
[1] = target: T1, Sodium- and chloride-dependent glycine transporter 1 (Homo sapiens, UniProt P48067); experiment: Displacement of [3H]glycine from human GlyT1 by radiometric assay
T1 sequence (P48067 whole entry): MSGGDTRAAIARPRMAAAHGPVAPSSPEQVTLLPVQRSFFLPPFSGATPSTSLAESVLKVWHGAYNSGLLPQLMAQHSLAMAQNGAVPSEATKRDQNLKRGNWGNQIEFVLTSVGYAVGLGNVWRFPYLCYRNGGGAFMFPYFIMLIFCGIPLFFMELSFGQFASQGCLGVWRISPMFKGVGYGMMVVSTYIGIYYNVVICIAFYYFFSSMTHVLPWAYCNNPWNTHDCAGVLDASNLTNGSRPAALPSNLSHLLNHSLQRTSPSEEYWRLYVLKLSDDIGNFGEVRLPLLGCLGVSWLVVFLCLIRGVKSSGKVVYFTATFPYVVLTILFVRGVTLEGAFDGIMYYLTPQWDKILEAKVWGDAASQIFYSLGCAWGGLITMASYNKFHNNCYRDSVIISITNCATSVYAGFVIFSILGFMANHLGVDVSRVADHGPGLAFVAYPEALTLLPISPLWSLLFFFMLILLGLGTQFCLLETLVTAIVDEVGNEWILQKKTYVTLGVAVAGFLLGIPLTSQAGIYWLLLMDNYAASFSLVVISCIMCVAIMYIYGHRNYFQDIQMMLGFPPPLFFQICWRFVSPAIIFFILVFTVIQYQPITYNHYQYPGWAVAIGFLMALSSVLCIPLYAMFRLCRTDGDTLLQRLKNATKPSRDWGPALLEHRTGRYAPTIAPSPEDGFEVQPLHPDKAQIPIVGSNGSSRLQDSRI

[2] = target: T2, Sodium- and chloride-dependent glycine transporter 2 (Homo sapiens, UniProt Q9Y345); experiment: Displacement of [3H]glycine from human GlyT2 by radiometric assay
T2 sequence (Q9Y345 whole entry): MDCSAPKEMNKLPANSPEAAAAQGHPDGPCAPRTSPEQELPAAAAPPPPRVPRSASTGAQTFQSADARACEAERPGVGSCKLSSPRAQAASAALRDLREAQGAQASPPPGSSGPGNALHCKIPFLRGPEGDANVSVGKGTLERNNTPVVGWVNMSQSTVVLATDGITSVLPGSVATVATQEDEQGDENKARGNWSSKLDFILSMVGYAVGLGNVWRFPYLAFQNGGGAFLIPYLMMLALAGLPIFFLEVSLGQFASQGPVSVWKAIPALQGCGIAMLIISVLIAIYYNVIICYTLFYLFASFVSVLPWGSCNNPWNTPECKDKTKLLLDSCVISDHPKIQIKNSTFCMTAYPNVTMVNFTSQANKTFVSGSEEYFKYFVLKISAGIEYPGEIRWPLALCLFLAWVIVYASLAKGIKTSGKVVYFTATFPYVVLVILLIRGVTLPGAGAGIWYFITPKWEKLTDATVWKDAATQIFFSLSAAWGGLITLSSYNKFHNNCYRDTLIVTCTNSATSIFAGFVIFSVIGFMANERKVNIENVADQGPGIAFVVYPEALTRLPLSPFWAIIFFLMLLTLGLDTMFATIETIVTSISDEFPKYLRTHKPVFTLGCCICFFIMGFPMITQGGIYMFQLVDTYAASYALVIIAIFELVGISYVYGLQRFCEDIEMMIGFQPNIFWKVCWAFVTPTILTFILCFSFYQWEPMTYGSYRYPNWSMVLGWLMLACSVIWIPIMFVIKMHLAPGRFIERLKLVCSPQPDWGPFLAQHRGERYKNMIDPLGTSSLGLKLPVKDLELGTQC

[3] = Maximum achievable bioavailability in human microsomes; format: ADME, Microsome; conditions: human liver microsomes, read-out: Max Achievable Bioavailability
[4] = Clearance in mouse microsomes; format: ADME, Liver, Microsome
[5] = Maximum achievable bioavailability in mouse microsomes; format: ADME, Liver, microsome; conditions: read-out: Max Achievable Bioavailability
[6] = Clearance in human microsomes; format: ADME, Microsome; conditions: human liver microsomes

Row | Structure (SMILES) | EC50 [1] [nM] | EC50 [2] [nM] | also measured
1 | CC(C)[C@]1(O)CCCC[C@H]1N1CCC2(CC1)C(=O)NCN2c1ccccc1 (mixture of isomers) | > 3000 | – | –
2 | CC(C)(C)[C@]1(O)CCCC[C@H]1N1CCC2(CC1)C(=O)NCN2c1ccccc1 (racemic) | 29000 | – | –
3 | O=C1NCN(c2ccccc2)C12CCN([C@@H]1CCOC[C@@]1(O)c1ccccc1)CC2 (racemic) | 90 | > 100000 | –
4 | O=C1NCN(c2ccccc2)C12CCN([C@@H]1CCCC[C@@]1(O)Cc1ccccc1)CC2 (racemic) | 4400 | – | –
5 | CCCN1CNC(=O)C12CCN([C@@H]1CCCC[C@@]1(O)c1ccccc1)CC2 (racemic) | 400 | – | Fh [3]: 84%; microsomal CLint [4]: 7 µL/min/mg; Fh [5]: 81%; microsomal CLint [6]: 5 µL/min/mg
6 | O=C1NCN(c2ccccc2)C12CCN([C@@H]1CCCC[C@@]1(O)c1ccccc1)CC2 (racemic) | 44 | 72000 | –
7 | O=C1NCN(c2ccccc2)C12CCN([C@@H]1CCCC[C@@]1(O)c1ccc(Cl)c(Cl)c1)CC2 (racemic) | 173 | 6000 | –
8 | Cc1ccc([C@]2(O)CCCC[C@H]2N2CCC3(CC2)C(=O)NCN3c2ccccc2)cc1 (racemic) | 140 | 25000 | –
9 | O=C1NCN(c2ccccc2)C12CCN([C@H]1CCCC[C@@]1(O)c1ccccc1)CC2 (racemic) | 56 | 26000 | –
10 | COc1ccc(N2CNC(=O)C23CCN([C@@H]2CCCC[C@@]2(O)c2ccc(Cl)cc2)CC3)cc1 (racemic) | 99 | 25000 | –
11 | O=C1NCN(c2ccccc2)C12CCN([C@@H]1CCCC[C@@]1(O)c1cccnc1)CC2 (racemic) | 110 | – | –
12 | C[C@]1(O)CCCC[C@H]1N1CCC2(CC1)C(=O)NCN2c1ccccc1 (racemic) | 9000 | – | –
13 | O=C1NCN(c2ccccc2)C12CCN([C@@H]1CCCC[C@@]1(O)c1cccc(Cl)c1)CC2 (racemic) | 130 | 21000 | –
14 | O=C1NCN(c2ccc(Cl)cc2)C12CCN([C@@H]1CCCC[C@@]1(O)c1ccc(F)cc1)CC2 (racemic) | 15 | 2500 | –
15 | O=C1NCN(c2ccccc2)C12CCN([C@@H]1COCC[C@@]1(O)c1ccccc1)CC2 (racemic) | 58 | 35000 | –
16 | O=C1NCN(c2ccccc2)C12CCN([C@@H]1CCCC[C@@]1(O)c1ccccn1)CC2 (racemic) | 130 | > 100000 | –
17 | COc1ccc([C@]2(O)CCCC[C@H]2N2CCC3(CC2)C(=O)NCN3c2ccccc2)cc1 (racemic) | 261 | 67000 | –
18 | CCCN1CNC(=O)C12CCN([C@H]1CCCC[C@H]1c1ccccc1)CC2 (racemic) | – | – | microsomal CLint [4]: 10 µL/min/mg; microsomal CLint [6]: 25 µL/min/mg
19 | O=C1NCN(c2ccc(F)cc2)C12CCN([C@@H]1CCCC[C@@]1(O)c1ccc(Cl)cc1)CC2 (racemic) | 24 | 19000 | –
20 | O=C1NCN(c2ccccc2)C12CCN([C@@H]1CCCC[C@@]1(O)c1ccncc1)CC2 (racemic) | 62 | > 100000 | –
21 | O=C1NCN(c2ccccc2)C12CCN([C@@H]1CCCC[C@@]1(O)c1ccc(Cl)cc1)CC2 (racemic) | 80 | 16000 | –
22 | COc1cccc([C@]2(O)CCCC[C@H]2N2CCC3(CC2)C(=O)NCN3c2ccccc2)c1 (racemic) | 130 | 41000 | –
23 | Cc1ccccc1[C@]1(O)CCCC[C@H]1N1CCC2(CC1)C(=O)NCN2c1ccccc1 (racemic) | 50 | 70000 | –
24 | O=C1NCN(c2ccccc2)C12CCN([C@@H]1CCCC[C@@]1(O)C1CCCCC1)CC2 (racemic) | 17000 | – | –
25 | O=C1NCN(c2ccccc2)C12CCN([C@H]1CCCC[C@H]1c1ccccc1)CC2 (racemic) | – | – | microsomal CLint [6]: 68 µL/min/mg
26 | O=C1NCN(c2ccc(F)cc2)C12CCN([C@@H]1CCCC[C@@]1(O)c1ccc(F)cc1)CC2 (racemic) | 24 | 36000 | microsomal CLint [4]: 102 µL/min/mg; microsomal CLint [6]: 92 µL/min/mg
27 | O=C1NCN(c2ccccc2)C12CCN([C@@H]1CCCC[C@@]1(O)c1ccc(F)cc1)CC2 (relative stereo) | 40 | 57000 | –
